Values quoted from earlier work, collected in paper PMC10703426, “New characterization of dihydroergotamine receptor pharmacology in the context of migraine: utilization of a β-arrestin recruitment assay” (Frontiers in Neurology, 2023).

Tested on: 5-HT1D
Parameters: method as in doi:10.1186/1129-2377-14-S1-P75
Details: cited from earlier work

CNS(=O)(=O)Cc1ccc2[nH]cc(CCN(C)C)c2c1 [sumatriptan succinate]
dissociation half-life: 5.4 min
